Legend:
[1] = biological target: T1, Alpha-2A adrenergic receptor (Homo sapiens, UniProt P08913); type: cell membranes, Sf9, Membrane; settings: sf9; note: in other assays of this panel Not Active means under 50% inhibition at 10 µM
T1 sequence (P08913 whole entry): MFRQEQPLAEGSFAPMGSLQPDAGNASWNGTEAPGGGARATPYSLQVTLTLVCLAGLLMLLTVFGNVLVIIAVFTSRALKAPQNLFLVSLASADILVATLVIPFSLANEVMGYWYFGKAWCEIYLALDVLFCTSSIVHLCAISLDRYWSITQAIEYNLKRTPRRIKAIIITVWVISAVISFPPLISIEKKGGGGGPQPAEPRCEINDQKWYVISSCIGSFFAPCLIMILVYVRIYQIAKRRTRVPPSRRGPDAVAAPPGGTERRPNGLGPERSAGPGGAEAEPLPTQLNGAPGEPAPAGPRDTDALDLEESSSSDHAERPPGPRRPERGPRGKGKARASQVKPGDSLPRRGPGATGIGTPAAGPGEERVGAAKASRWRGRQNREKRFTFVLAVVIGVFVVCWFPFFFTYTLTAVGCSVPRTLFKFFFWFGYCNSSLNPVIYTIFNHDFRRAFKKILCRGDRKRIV

Acetylcholinesterase = Acetylcholinesterase (Homo sapiens, UniProt P22303); test: DRUGMATRIX: Acetylcholinesterase enzyme inhibition (substrate: acetylthiocholine); type: cell-based, HEK293; settings: hek293; Not Active = under 50% inhibition at 10 µM
Sequence of Acetylcholinesterase (P22303 whole entry): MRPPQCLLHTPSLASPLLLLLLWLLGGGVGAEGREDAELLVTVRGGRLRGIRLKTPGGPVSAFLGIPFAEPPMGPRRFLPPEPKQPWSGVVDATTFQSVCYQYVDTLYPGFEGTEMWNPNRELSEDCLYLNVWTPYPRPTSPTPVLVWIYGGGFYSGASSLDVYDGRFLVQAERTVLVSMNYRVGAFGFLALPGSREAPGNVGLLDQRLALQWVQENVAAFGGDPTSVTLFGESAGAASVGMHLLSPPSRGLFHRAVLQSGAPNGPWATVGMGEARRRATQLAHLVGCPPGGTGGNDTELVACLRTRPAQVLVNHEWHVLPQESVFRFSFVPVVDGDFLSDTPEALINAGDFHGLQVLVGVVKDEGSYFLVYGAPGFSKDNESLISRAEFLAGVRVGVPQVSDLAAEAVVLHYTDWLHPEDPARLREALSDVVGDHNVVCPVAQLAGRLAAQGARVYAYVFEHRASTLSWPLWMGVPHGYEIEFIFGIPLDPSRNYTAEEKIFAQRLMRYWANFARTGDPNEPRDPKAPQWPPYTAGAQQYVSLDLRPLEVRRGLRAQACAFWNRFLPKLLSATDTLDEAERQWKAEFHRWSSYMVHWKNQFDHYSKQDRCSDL

[2] = biological target: Protein phosphatase 3 catalytic subunit alpha (Homo sapiens, UniProt Q08209); set-up: species or system Escherichia coli;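 note: inhibition of calcineurin (PP2B) enzyme activity, measured with DiFMUP as the substrate; in other assays of this panel Not Active means under 50% inhibition at 10 µM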
[3] = DRUGMATRIX: Leukotriene, BLT (LTB4) radioligand binding (ligand: [3H]LTB4); type: cell membranes, Membrane; settings: u-937; Not Active = under 50% inhibition at 10 µM
[4] = biological target: T2, Vasoactive intestinal polypeptide receptor 1 (Homo sapiens, UniProt P32241); type: cell membranes, Membrane; settings: ht-29; note: in other assays of this panel Not Active means under 50% inhibition at 10 µM
T2 sequence (P32241 whole entry): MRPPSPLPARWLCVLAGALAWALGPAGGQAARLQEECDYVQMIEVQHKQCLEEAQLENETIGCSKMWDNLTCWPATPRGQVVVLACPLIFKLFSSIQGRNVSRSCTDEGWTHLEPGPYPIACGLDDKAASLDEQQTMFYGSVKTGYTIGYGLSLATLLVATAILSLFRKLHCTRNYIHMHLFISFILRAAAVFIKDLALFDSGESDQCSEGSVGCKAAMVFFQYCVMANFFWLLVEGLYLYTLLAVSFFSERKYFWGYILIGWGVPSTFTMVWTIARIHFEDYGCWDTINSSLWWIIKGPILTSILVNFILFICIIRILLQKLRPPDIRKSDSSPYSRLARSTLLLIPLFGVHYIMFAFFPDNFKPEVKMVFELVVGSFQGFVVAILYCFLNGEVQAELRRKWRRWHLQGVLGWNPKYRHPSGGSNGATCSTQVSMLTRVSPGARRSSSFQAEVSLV

[5] = biological target: cGMP-specific 3',5'-cyclic phosphodiesterase (Homo sapiens, UniProt O76074); test: DRUGMATRIX: Phosphodiesterase PDE5 enzyme inhibition (substrate: [3H]cGMP + cGMP); type: tissue-based, Platelet; settings: platelet; Not Active = under 50% inhibition at 10 µM
[6] = biological target: T3, Type-2 angiotensin II receptor (Homo sapiens, UniProt P50052); type: cell-based; settings: cho-k1; note: in other assays of this panel Not Active means under 50% inhibition at 10 µM
T3 sequence (P50052 whole entry): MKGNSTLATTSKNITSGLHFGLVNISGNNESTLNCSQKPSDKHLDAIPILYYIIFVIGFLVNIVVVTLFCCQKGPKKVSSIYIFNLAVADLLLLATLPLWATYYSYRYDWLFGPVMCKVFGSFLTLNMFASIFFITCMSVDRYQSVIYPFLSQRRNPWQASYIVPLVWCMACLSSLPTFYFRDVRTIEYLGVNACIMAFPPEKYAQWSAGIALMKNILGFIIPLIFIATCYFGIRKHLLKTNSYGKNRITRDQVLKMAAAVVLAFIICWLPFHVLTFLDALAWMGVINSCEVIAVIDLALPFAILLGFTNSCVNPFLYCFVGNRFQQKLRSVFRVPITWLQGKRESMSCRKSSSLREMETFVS

Cc1c(OCC(F)(F)F)ccnc1C[S+]([O-])c1nc2ccccc2[nH]1 (centres undefined) [LANSOPRAZOLE]
Not Active: IC50 [1] | IC50 (Acetylcholinesterase) | IC50 [2] | IC50 [3] | Ki [3] | IC50 [4] | IC50 [5] | IC50 [6]

CN1[C@@H]2CC[C@H]1C[C@@H](OC(=O)C(CO)c1ccccc1)C2 (some centres undefined) [ATROPINE]
Not Active: IC50 [1] | IC50 (Acetylcholinesterase) | IC50 [2] | IC50 [3] | Ki [3] | IC50 [4] | IC50 [5] | IC50 [6]

COc1ccc(C2C(=O)c3ccccc3C2=O)cc1 [ANISINDIONE]
Not Active: IC50 [1] | IC50 (Acetylcholinesterase) | IC50 [2] | IC50 [3] | Ki [3] | IC50 [4] | IC50 [5] | IC50 [6]

COC(=O)Nc1nc2ccc([S+]([O-])c3ccccc3)cc2[nH]1 (centres undefined) [OXFENDAZOLE]
Not Active: IC50 [1] | IC50 (Acetylcholinesterase) | IC50 [2] | IC50 [3] | Ki [3] | IC50 [4] | IC50 [5] | IC50 [6]

CC(C(=O)O)c1ccc2oc(-c3ccc(Cl)cc3)nc2c1 (centres undefined) [BENOXAPROFEN]
Not Active: IC50 [1] | IC50 (Acetylcholinesterase) | IC50 [2] | IC50 [3] | Ki [3] | IC50 [4] | IC50 [5] | IC50 [6]

Cc1cc2c(OCC(CNC(C)(C)C)OC(=O)c3ccccc3)cccc2[nH]1 (centres undefined) [BOPINDOLOL]
Not Active: IC50 [1] | IC50 (Acetylcholinesterase) | IC50 [2] | IC50 [3] | Ki [3] | IC50 [4] | IC50 [5] | IC50 [6]

Nc1ccn([C@@H]2O[C@H](CO)[C@@H](O)C2(F)F)c(=O)n1 [GEMCITABINE]
Not Active: IC50 [1] | IC50 (Acetylcholinesterase) | IC50 [2] | IC50 [3] | Ki [3] | IC50 [4] | IC50 [5] | IC50 [6]

COc1ccc2[nH]cc(CCNC(C)=O)c2c1 [MELATONIN]
Not Active: IC50 [1] | IC50 (Acetylcholinesterase) | IC50 [2] | IC50 [3] | Ki [3] | IC50 [4] | IC50 [5] | IC50 [6]

From ChEMBL document CHEMBL1909046, “DrugMatrix in vitro pharmacology data”
